Source: patent US10278968B2, “Combination therapy with glutaminase inhibitors” (Calithera Biosciences, Inc., priority 2016, dated 2019)

Test system: P493-6 (myc "on") cells
Test: Cell Proliferation Assay
Type: cell-based
Settings: read-out: Cell prolif P493 72 h IC50; P493-6 cells, 72 h incubation
Protocol: P493-6 (myc “on”) cells were maintained in growth media (RPMI-1640, 10% FBS, 2 mM glutamine, 100 units/ml Penicillin and 100 μg/ml streptomycin) at 37° C. with 5% CO2. For compound assay, P493-6 cells were plated in 96-well V-bottom plates on the day of compound addition in 50 μl of growth media at a cell density of 200,000 cells/ml (10,000 cells/well). Compounds were serially diluted in 100% DMSO at 200-times the final concentration. Compounds were diluted 100-fold into growth media and then 50 μl of this mixture was added to cell plates making the final concentration of DMSO 0.5%. Cells were incubated with compound for 72 hrs at 37° C. with 5% CO2 and analyzed for antiproliferative effects either by Cell Titer Glo (Promega) or FACS analysis using the Viacount (Millipore) kit on the Guava instrument.

`COc1ccc(OC(F)(F)F)cc1CC(=O)Nc1ccc(CCCCc2nnc(NC(=O)Cc3ccccn3)s2)nn1` [Cmpd 717] showed an IC50 of 19 nM.
